According to USRE39866E1 (Telik, Inc., priority 1997, dated 2007):
Where two headings read alike, the source gives them in different places.

Legend:
[1] = molecular target: T1, human insulin receptor (Homo sapiens, UniProt P06213); assay: phosphorylation of artificial substrate poly(Glu4Tyr) by activated receptor, labeled ATP; assay type: biochemical
T1 construct: partially purified from placental extracts or from cell line IM-9; from tissue; host or cells: human placental extracts or cell line IM-9

[2] = tested on: 3T3-L1 fibroblast cells; assay: glucose transport in 3T3-L1 cell line; assay type: cell-based
Source text: (§1) Insulin also enhances glucose transport in this cell line.

[3] = molecular target: T2, insulin receptor on human lymphocytic cell line IM-9 (Homo sapiens, UniProt P06213); assay: insulin receptor agonist activity on whole IM-9 cells (lysate ELISA); assay type: cell-based
T2 construct: on whole cells, i.e., on the human lymphocytic cell line IM-9; endogenous in cells; host or cells: IM-9 human lymphocytic cell line
Experimental: The cells were then lysed in 0.5% Tween 20 and lysates analyzed in an ELISA assay as described in paragraph A, without the steps of incubation with ATP.

[4] = tested on: 3T3-L1 fibroblast cells; assay: differentiation of 3T3-L1 fibroblasts to adipocyte-like morphology (Oil Red O uptake); assay type: cell-based
Source text: as §1

[5] = molecular target: T3, human insulin receptors (hIR) (Homo sapiens, UniProt P06213); assay: insulin receptor kinase autophosphorylation assay (captured hIR, anti-phosphotyrosine ELISA); assay type: biochemical; details: for agonist activity in IR kinase assay (in words): samples as screened; for activity in IR kinase assay after synthesis or purification: synthesized or extensively purified / HPLC-purified material
T3 construct: partially purified from placental extracts or from cell line IM-9; from tissue; host or cells: human placental extracts or cell line IM-9
Experimental: This assay is a modified form of that described in Hagino, H. et al. Diabetes (1994) 43:274-280. […] The partially purified hIRs were captured into microplate wells by incubating them for 90 minutes with wells coated with a monoclonal antibody to hIR. […] After 60 minutes, the wells were washed, and then treated for 60 minutes with biotinylated antibody directed against phosphotyrosine (PY-20) and unbound materials again washed away. The wells were then incubated with a conventional streptavidin peroxidase system for 30 minutes to assess the level of phosphorylated tyrosine.

[6] = molecular target: T4, recombinantly produced β chain lacking the insulin-binding domain (Homo sapiens, UniProt P06213); assay: phosphorylation of substrate peptide Raytide by recombinant beta chain kinase; assay type: biochemical; details: 25 μM
T4 construct: purchased Stratagene, Inc
Experimental: The ability of this kinase to phosphorylate a substrate peptide (Raytide from Oncogene Sciences) is stimulated by TER12 at 25 μM.

[7] = tested on: Glut4 transporter in 3T3-L1 adipocytes; assay: distribution of Glut4 transporter in 3T3-L1 adipocytes (immunofluorescence); assay type: cell-based; details: 15 minutes incubation
Source text: The results were visualized under a fluorescent microscope.

T1 sequence (P06213 763-1382 limits assumed): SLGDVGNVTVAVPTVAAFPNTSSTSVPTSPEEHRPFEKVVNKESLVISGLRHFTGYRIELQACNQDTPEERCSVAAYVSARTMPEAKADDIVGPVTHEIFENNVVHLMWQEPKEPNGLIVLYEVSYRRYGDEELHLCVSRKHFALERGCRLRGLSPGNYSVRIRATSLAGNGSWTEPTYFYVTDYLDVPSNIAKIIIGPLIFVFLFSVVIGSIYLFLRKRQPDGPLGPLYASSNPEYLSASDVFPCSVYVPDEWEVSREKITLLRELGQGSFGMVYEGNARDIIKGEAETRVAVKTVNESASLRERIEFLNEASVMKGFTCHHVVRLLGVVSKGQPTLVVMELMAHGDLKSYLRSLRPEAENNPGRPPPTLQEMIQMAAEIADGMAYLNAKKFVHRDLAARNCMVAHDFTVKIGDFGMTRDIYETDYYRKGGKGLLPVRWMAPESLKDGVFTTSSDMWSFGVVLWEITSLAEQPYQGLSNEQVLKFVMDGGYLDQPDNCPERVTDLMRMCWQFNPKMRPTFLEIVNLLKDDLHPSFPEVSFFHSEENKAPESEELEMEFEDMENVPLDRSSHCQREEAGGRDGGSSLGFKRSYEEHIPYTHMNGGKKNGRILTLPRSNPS
T1 sequence (P06213 28-758 partner limits assumed): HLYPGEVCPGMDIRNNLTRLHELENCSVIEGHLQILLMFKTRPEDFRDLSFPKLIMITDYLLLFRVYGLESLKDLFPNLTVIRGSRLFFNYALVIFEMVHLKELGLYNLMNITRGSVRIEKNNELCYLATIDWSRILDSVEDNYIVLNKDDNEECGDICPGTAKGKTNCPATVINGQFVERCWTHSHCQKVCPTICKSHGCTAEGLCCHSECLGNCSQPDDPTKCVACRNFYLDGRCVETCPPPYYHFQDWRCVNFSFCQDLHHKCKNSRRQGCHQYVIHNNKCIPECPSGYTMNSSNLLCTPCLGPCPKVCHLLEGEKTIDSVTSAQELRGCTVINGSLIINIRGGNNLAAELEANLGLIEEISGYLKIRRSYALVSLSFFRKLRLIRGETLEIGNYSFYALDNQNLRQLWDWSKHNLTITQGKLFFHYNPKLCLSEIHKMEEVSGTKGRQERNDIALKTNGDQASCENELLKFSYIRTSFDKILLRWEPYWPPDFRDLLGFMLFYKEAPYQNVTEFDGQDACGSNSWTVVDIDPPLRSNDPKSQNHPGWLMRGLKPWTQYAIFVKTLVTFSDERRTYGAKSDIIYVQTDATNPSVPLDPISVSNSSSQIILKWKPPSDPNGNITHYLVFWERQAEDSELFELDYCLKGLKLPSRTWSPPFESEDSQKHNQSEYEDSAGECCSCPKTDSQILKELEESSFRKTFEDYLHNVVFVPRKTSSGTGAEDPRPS
T2 sequence (P06213 763-1382 limits assumed): as the sequence (P06213 763-1382 limits assumed) above
T2 sequence (P06213 28-758 partner limits assumed): as the sequence (P06213 28-758 partner limits assumed) above
T3 sequence (P06213 763-1382 limits assumed): as the sequence (P06213 763-1382 limits assumed) above
T3 sequence (P06213 28-758 partner limits assumed): as the sequence (P06213 28-758 partner limits assumed) above
T4 sequence (P06213 763-1382 limits assumed): as the sequence (P06213 763-1382 limits assumed) above

For O=C(Nc1cc(S(=O)(=O)[O-])cc2cc(S(=O)(=O)[O-])c(N=Nc3cc(Nc4nc(Cl)nc(Nc5ccc(S(=O)(=O)[O-])cc5)n4)ccc3S(=O)(=O)[O-])c(O)c12)c1ccccc1.[Na+].[Na+].[Na+].[Na+] [TER12, Cibacron Brilliant Red 3BA], the “percent of maximal phosphorylation” value ([1]; 0.5 nM insulin plus 20 μM TER12 sample) was 120%, the “percent of maximal phosphorylation” value ([1]; 5 nM insulin plus TER12 sample) was 140% and the “percent of maximal insulin-stimulated activity” value ([1]; about 20 μM sample calculated as TER12, no insulin) was 75%. For the same compound, the “stimulation of glucose transport” value ([2]; sample alone) was “failed to stimulate glucose transport significantly”, the “effect on insulin-stimulated glucose transport” value ([2]; with insulin) was “enhanced the ability of insulin to do so” and the “increase of basal insulin receptor kinase activity” value ([3]; 5 minutes exposure, sample containing 20 μM TER12) was “two-fold”. The “increase of insulin stimulated insulin receptor kinase activity” value ([3]; 5 minutes exposure, sample containing 20 μM TER12, with insulin) was “five-fold”, the “effect on insulin-induced differentiation” value ([4]; 20 μM with insulin) was “enhances the differentiating effect of insulin” and the effect on differentiation ([4]; sample alone) was “does not appear to effect differentiation”. For the same compound, the “increase in phosphorylation on addition to insulin” value ([5]; 60 μM sample added to hIR contacted with 0.3 nM insulin) was “approximately three-fold”, the stimulation of autophosphorylation ([5]; absence of insulin, 20 μM of sample composed mainly of TER12) was “over five-fold” and the EC50 ([5]; read-out: EC50 for enhancing insulin stimulation, sample calculated as TER12) was roughly 20 µM. For the same compound, the “agonist activity in IR kinase assay (in words)” value [5] was “apparent agonist activity”, the “activity in IR kinase assay after synthesis or purification” value [5] was “active” and the “stimulation of kinase phosphorylation of Raytide” value [6] was “stimulated”.

For COc1ccccc1NC(=O)C(N=Nc1ccc(-c2nc3ccc(C)c(S(=O)(=O)[O-])c3s2)cc1S(=O)(=O)[O-])C(C)=O.[Na+].[Na+] (stereo not drawn) [TER3938, Direct Yellow 27], the “enhancement of insulin-stimulated autophosphorylation of insulin receptor” value ([3]; intact IM-9 cells) was “enhanced the activity of insulin”, the “activity in IR kinase assay of insoluble compound” value ([5]; insoluble compound after washing sample with aqueous sodium carbonate) was “less active” and the EC50 ([5]; read-out: EC50 in in vitro autophosphorylation assay) was 8 µM. For the same compound, the “agonist activity in IR kinase assay (in words)” value [5] was “agonist activity” and the “activity in IR kinase assay after synthesis or purification” value [5] was “retained its activity”.

For insulin, the “redistribution of Glut4” value [7] was “dramatic redistribution of Glut4 to the membrane surfaces”.
